Reference: patent US20240174727A1, “LONG-ACTING NATRIURETIC PEPTIDES AND USES THEREOF” (Eli Lilly and Company, priority 2022, published 2024)
Numbered stars: 1 amine (or outer) side, 2 acyl side, 3 side chain; on linkers, the order of the positions; unused ones are H or OH. Bridge positions count the residues as written; N and C are the ends. Square brackets hold non-standard residues; d marks the D form. * marks the point of attachment. C20 diacid = O=C(O)CCCCCCCCCCCCCCCCCCC(=O)*; γGlu = O=C(O)[C@H](CCC(=O)[*:2])N[*:1]; Dap = NC[C@H](N)C(=O)O; CH2 = C([*:1])[*:2]

Test system: plasma cGMP
Assay: In vivo monkey studies, plasma cGMP ELISA
Design: species or system male cynomolgus monkeys
Conditions: for Net cGMP (nM) Change from Baseline 0.083 h: 0.083 h postdose; for Net cGMP (nM) Change from Baseline 0.083 h / Net cGMP (nM) Change from Baseline 0.25 h / Net cGMP (nM) Change from Baseline 0.5 h / Net cGMP (nM) Change from Baseline 1 h / Net cGMP (nM) Change from Baseline 2 h / Net cGMP (nM) Change from Baseline 4 h / Net cGMP (nM) Change from Baseline 8 h / Net cGMP (nM) Change from Baseline 12 h / Net cGMP (nM) Change from Baseline 24 h / Net cGMP (nM) Change from Baseline 36 h / Net cGMP (nM) Change from Baseline 48 h / Net cGMP (nM) Change from Baseline 72 h / Net cGMP (nM) Change from Baseline 96 h / Net cGMP (nM) Change from Baseline 120 h / Net cGMP (nM) Change from Baseline 144 h / Net cGMP (nM) Change from Baseline 168 h: monkey plasma; for Net cGMP (nM) Change from Baseline 0.25 h: 0.25 h postdose; for Net cGMP (nM) Change from Baseline 0.5 h: 0.5 h postdose; for Net cGMP (nM) Change from Baseline 1 h: 1 h postdose; for Net cGMP (nM) Change from Baseline 2 h: 2 h postdose; for Net cGMP (nM) Change from Baseline 4 h: 4 h postdose; for Net cGMP (nM) Change from Baseline 8 h: 8 h postdose; for Net cGMP (nM) Change from Baseline 12 h: 12 h postdose; for Net cGMP (nM) Change from Baseline 24 h: 24 h postdose; for Net cGMP (nM) Change from Baseline 36 h: 36 h postdose; for Net cGMP (nM) Change from Baseline 48 h: 48 h postdose; for Net cGMP (nM) Change from Baseline 72 h: 72 h postdose; for Net cGMP (nM) Change from Baseline 96 h: 96 h postdose; for Net cGMP (nM) Change from Baseline 120 h: 120 h postdose; for Net cGMP (nM) Change from Baseline 144 h: 144 h postdose; for Net cGMP (nM) Change from Baseline 168 h: 168 h postdose; for net cGMP levels (result in words): monkeys, single SC dose, plasma
Experimental: In vivo monkey studies were conducted as described in detail below. Young adult-to-adult male cynomolgus monkeys were given a single dose subcutaneously (SC). Blood was collected predose and at various pre-determined timepoints throughout the study period. Aliquot of cynomolgus monkey plasma was received for cyclic cGMP (cGMP) measurement and stored at −80° C. prior to use.
Control plasma was made for determining the recovery rate of spike-in cGMP using Enzo cGMP complete ELISA kit (Enzo Life Sciences, Inc, Farmingdale, NY, cat no. ADI-901-164). Briefly, blood from male Sprague Dawley rats (Inotiv, Indianapolis, IN), about 7 months old, was collected in a BD Vacutainer EDTA tube (Becton Dickinson, Franklin Lakes, NJ, cat no. BD-367856) with volume of approximate 4 mL through retro orbital bleeding. Plasma was prepared by spinning the tube in an Eppendorf Refrigerated Centrifuge 5810R (Brinkman Instruments, Inc, Westbury, NY) at 3500 rpm (3000×g) for 10 min at 4° C. Plasma was collected as Positive Control plasma. Cyclic GMP (cGMP standard from Enzo cGMP complete ELISA kit) was added to the positive control plasma at a final concentration of additional 40 nM. Positive Control and Spiked-in Control plasma were aliquoted and stored at −80° C.
The cGMP content was measured using the Enzo cGMP complete ELISA kit following the manufacturer's directions with modifications as described below. The cGMP standards provided in the kit were diluted 1:3 ranging from 50 nM to 0.023 nM in 1× assay buffer that was diluted in water from 2× assay buffer provided in the kit. The cGMP standards ([…]) were transferred to a 96-well polypropylene plate (Thermo Scientific, cat no. 442587).
Plasma samples were thawed from −80° C. and diluted 1:20 in 1× assay buffer in the above plate with a final volume of 150 μL. Assay buffer was added (150 μL) for both a non-specific binding control (in the absence of cGMP antibody) and a maximum binding control (in the absence of competing cGMP) in duplicate wells. Positive Control and Spiked-in Control plasma were diluted 1:20 in 1× assay buffer with a final volume of 150 μL in duplicate wells of the above plate. All diluted plasma was mixed by pipetting up and down several times.
Acetylation reagent mix was prepared by adding 1-part of acetic anhydride into 2-parts of triethylamine provided in the kit and mixing well using Vortex (Scientific Industries, Inc, Bohemia, NY). All controls, standards, and plasma samples were acetylated by adding 15 μL of acetylation reagent mix into the plate, one column at a time, and shaking for 1 min on a Titer Plate Shaker (Lab-Line Instrument, Inc., Melrose Park, IL) at room temperature. The plate was shaken for an additional 1 min following the acetylation of the last column to ensure the reaction was completed.
Acetylated controls, standard and plasma samples were transferred (100 μL) to an ELISA plate (n=1). Then 50 μL of cGMP conjugate were added to each well followed by the addition of 50 μL cGMP antibody to each well except for two non-specific binding wells, in which 50 μL of 1× assay buffer were added. The plate was then sealed and shaken for 2 h at room temperature on the plate shaker. Following this incubation, the plate was washed five times using 200 μL of 1× wash buffer diluted in water from 5× wash buffer provided in the kit. Then, 200 μL of para-Nitrophenylphosphate (pNpp) were added to each well. The plate was sealed with a new plate sealer and shaken in dark for 1 h at room temperature on the plate shaker. Finally, 50 μL of stop solution were added to each well to stop the enzyme reaction. The plate was then read at 405 nm using SpectraMax Plus (Molecular Devices, San Jose, CA).
The mean absorbance at 405 nm (O.D. 405 nm) for the non-specific binding controls was subtracted from the O.D. 405 nm of all samples. The subtracted O.D. 405 nm of all samples were then normalized with the mean subtracted O.D. 405 nm of the maximum binding controls as B/B0%. […]

CC[C@H](C)[C@@H]1NC(=O)[C@H](CCCNC(=N)N)NC(=O)[C@H](CC(=O)O)NC(=O)[C@H]([C@@H](C)CC)NC(=O)[C@H](CCCNC(=N)N)NC(=O)[C@H](CCCCN)NC(=O)CNC(=O)[C@H](Cc2ccccc2)NC(=O)[C@@H](NC(=O)[C@H](CO)NC(=O)[C@H](CO)NC(=O)[C@H](CCCNC(=N)N)NC(=O)CCNC(=O)[C@H](CCCCN)NC(=O)[C@H](CCC(=O)O)NC(=O)COCCOCCNC(=O)COCCOCCNC(=O)COCCOCCNC(=O)COCCOCCNC(=O)COCCOCCNC(=O)COCCOCCNC(=O)CNC(=O)[C@H](CCCCN)NC(=O)[C@H](CCC(=O)O)NC(=O)[C@H](CCCCN)NC(=O)[C@H](CCC(=O)O)NC(=O)[C@H](CCCCN)NC(=O)[C@H](CCC(=O)O)NC(=O)CC[C@H](NC(=O)CCCCCCCCCCCCCCCCCCC(=O)O)C(=O)O)CSCSC[C@@H](C(=O)N2CCC[C@H]2C(=O)N[C@@H](CO)C(=O)N[C@@H](Cc2ccccc2)C(=O)N[C@@H](CCCNC(=N)N)C(=O)N[C@@H](Cc2c[nH]cn2)C(=O)NCC(=O)NCC(=O)N[C@@H](CCCCN)C(=O)N[C@@H](CO)C(=O)N[C@@H](CO)C(=O)NCC(=O)N[C@@H](C)C(=O)N2CCC[C@H]2C(=O)N2CCC[C@H]2C(=O)N2CCC[C@H]2C(=O)N[C@@H](CO)C(N)=O)NC(=O)CNC(=O)[C@H](CC(C)C)NC(=O)CNC(=O)[C@H](CO)NC(=O)[C@H](CCC(N)=O)NC(=O)[C@H](Cc2c[nH]cn2)NC(=O)CNC1=O [Example 89]
Net cGMP (nM) Change from Baseline 0.083 h (dose 100 nmol/kg): 6.83 nM | Net cGMP (nM) Change from Baseline 0.25 h (dose 100 nmol/kg): 20.73 nM | Net cGMP (nM) Change from Baseline 0.5 h (dose 100 nmol/kg): 33.07 nM | Net cGMP (nM) Change from Baseline 1 h (dose 100 nmol/kg): 35.04 nM | Net cGMP (nM) Change from Baseline 2 h (dose 100 nmol/kg): 36.11 nM | Net cGMP (nM) Change from Baseline 4 h (dose 100 nmol/kg): 42.86 nM | Net cGMP (nM) Change from Baseline 8 h (dose 100 nmol/kg): 36.71 nM | Net cGMP (nM) Change from Baseline 12 h (dose 100 nmol/kg): 33.87 nM | Net cGMP (nM) Change from Baseline 24 h (dose 100 nmol/kg): 30.9 nM | Net cGMP (nM) Change from Baseline 36 h (dose 100 nmol/kg): 24.59 nM | Net cGMP (nM) Change from Baseline 48 h (dose 100 nmol/kg): 16.29 nM | Net cGMP (nM) Change from Baseline 72 h (dose 100 nmol/kg): 15.56 nM | Net cGMP (nM) Change from Baseline 96 h (dose 100 nmol/kg): 12.74 nM | Net cGMP (nM) Change from Baseline 120 h (dose 100 nmol/kg): 18.95 nM | Net cGMP (nM) Change from Baseline 144 h (dose 100 nmol/kg): 12.03 nM | Net cGMP (nM) Change from Baseline 168 h (dose 100 nmol/kg): 8.03 nM | net cGMP levels (result in words): increased net cGMP levels

{C20 diacid-γGlu}-EKEKEKGEKPRSSCFG[Dap]RIDRIGHYSGLGCPSFRHGSPSSGAPPPS-NH2 (linker 14-30 via CH2) [Example 136]
Net cGMP (nM) Change from Baseline 0.083 h (dose 50 nmol/kg): 3.25 nM | Net cGMP (nM) Change from Baseline 0.25 h (dose 50 nmol/kg): 12.48 nM | Net cGMP (nM) Change from Baseline 0.5 h (dose 50 nmol/kg): 20.78 nM | Net cGMP (nM) Change from Baseline 1 h (dose 50 nmol/kg): 12.12 nM | Net cGMP (nM) Change from Baseline 2 h (dose 50 nmol/kg): 9.42 nM | Net cGMP (nM) Change from Baseline 4 h (dose 50 nmol/kg): 8.76 nM | Net cGMP (nM) Change from Baseline 8 h (dose 50 nmol/kg): 7.65 nM | Net cGMP (nM) Change from Baseline 12 h (dose 50 nmol/kg): 7.65 nM | Net cGMP (nM) Change from Baseline 24 h (dose 50 nmol/kg): 11.83 nM | Net cGMP (nM) Change from Baseline 36 h (dose 50 nmol/kg): 11.18 nM | Net cGMP (nM) Change from Baseline 48 h (dose 50 nmol/kg): 5.65 nM | Net cGMP (nM) Change from Baseline 72 h (dose 50 nmol/kg): 2.61 nM | Net cGMP (nM) Change from Baseline 96 h (dose 50 nmol/kg): 2.05 nM | Net cGMP (nM) Change from Baseline 120 h (dose 50 nmol/kg): 2.71 nM | Net cGMP (nM) Change from Baseline 144 h (dose 50 nmol/kg): 3.72 nM | Net cGMP (nM) Change from Baseline 168 h (dose 50 nmol/kg): 3.36 nM | net cGMP levels (result in words): increased net cGMP levels
